Here are results for 26 compounds from patent US20040102423A1, “Spironolactone and angiotensin II antagonist combination therapy for treatment of congestive heart failure” (G.D. Searle & Co., priority 1995, published 2004).

The target of test [1] is angiotensin II AT1 receptor. As to the kind of experiment: Assay A: Angiotensin II binding activity, rat uterine membrane preparation, 125I-AII displacement.
A further test concerns rabbit aortic rings. Put plainly: Assay B: In vitro vascular smooth muscle response for AII (antagonist activity, pA2). As to conditions: Oryctolagus cuniculus, two values in a cell = two determinations. It is filed as cell-based. In a few lines:
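Endothelium-denuded thoracic aortic rings from male New Zealand white rabbits, in oxygenated Krebs at 37° C. under ~1 g tension, gave isometric AII contraction curves (3×10^−10 to 1×10^−5 M).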

The test system of a further test is pressor response to AII. Put plainly: Assay C: In vivo intragastric pressor assay response for AII antagonists. Also noted: species or system Sprague-Dawley rats. As to conditions: in vivo pressor response, 3 mg/kg intragastrically; for inhibition in vivo at 3 mg/kg: Rattus norvegicus, po.
A further test concerns myocardial fibrosis. The note with it: animal models; cited from earlier work.

As for `CCCn1nc(C(C)(F)F)nc1Cc1ccc(-c2ccccc2-c2nnn[nH]2)nc1` [Compound 176], the IC50 in test [1] came to 9.8 nM. The Kb in the test with rabbit aortic rings is 20.4 nM. For the same compound, in the test with pressor response to AII, at 3 mg/kg the inhibition in vivo was 10% and the “Assay C Duration” value is 150 min.

In turn, `CCCn1nc(C(OC)OC)nc1Cc1ccc(-c2ccccc2-c2nnn[nH]2)nc1` [Compound 185] came in with an IC50 in test [1] of 6.5 nM. The compound further gave a Kb with rabbit aortic rings of 1.51 nM. Further, in the test on pressor response to AII, the inhibition in vivo at 3 mg/kg stood at 50% and the “Assay C Duration” value is more than 180 min.

On to `CCCCn1nc(C=O)nc1Cc1ccc(-c2ccccc2-c2nnn[nH]2)nc1` [Compound 190], for which, in test [1], the IC50 came out at 10 nM. In the test with rabbit aortic rings, the Kb was 13.5 nM. Besides, in the test with pressor response to AII, at 3 mg/kg the inhibition in vivo was 10% and the “Assay C Duration” value worked out at 180 min.

Compound `CCCCn1nc(C2OCCCO2)nc1Cc1ccc(-c2ccccc2-c2nnn[nH]2)nc1` [Compound 191] gave an IC50 in test [1] of 81 nM. For the same compound, in the test on rabbit aortic rings, the Kb is 17.8 nM. In the test on pressor response to AII, testing at 3 mg/kg gave an inhibition in vivo of 10% and the “Assay C Duration” value stood at 180 min.

For `CCCn1cc(CC(C)C)n(Cc2ccc(-c3ccccc3-c3nnn[nH]3)nc2)c1=O` [Compound 198], the IC50 in test [1] is 7.6 nM. The compound further showed a Kb in the test with rabbit aortic rings of 1.74 nM. Further, in the test with pressor response to AII, the inhibition in vivo at 3 mg/kg was determined as 35% and the “Assay C Duration” value was more than 180 min.

As for `CCCCn1cc(CC(C)C)n(Cc2ccc(-c3ccccc3-c3nnn[nH]3)nc2)c1=O` [Compound 199], in test [1], the IC50 was determined as 10 nM. In the test on rabbit aortic rings, this compound had a Kb of 1.62 nM. Also, in the test on pressor response to AII, testing at 3 mg/kg gave an inhibition in vivo of 60% and the “Assay C Duration” value was more than 180 min.

The compound `CCCCCc1cn(CCCC)c(=O)n1Cc1ccc(-c2ccccc2-c2nnn[nH]2)nc1` [Compound 201] showed an IC50 in test [1] of 17 nM. In the test on rabbit aortic rings, this compound gave a Kb of 1.66 nM. In the test on pressor response to AII, at 3 mg/kg the inhibition in vivo was 10% and the “Assay C Duration” value was determined as 180 min.

`CCCCn1cc(C2CCCCC2)n(Cc2ccc(-c3ccccc3-c3nnn[nH]3)nc2)c1=O` [Compound 202] showed an IC50 in test [1] of 12 nM. Also, the antagonist equilibrium constant (Kb) with rabbit aortic rings was 1.62 nM. Moreover, in the test on pressor response to AII, the inhibition in vivo at 3 mg/kg is 65% and the “Assay C Duration” value is more than 180 min.

The compound `CCCCn1cc(C2CCCC2)n(Cc2ccc(-c3ccccc3-c3nnn[nH]3)nc2)c1=O` [Compound 203] gave an IC50 in test [1] of 9.2 nM. This compound also gave a Kb in the test on rabbit aortic rings of 3.72 nM. For the same compound, in the test on pressor response to AII, the inhibition in vivo at 3 mg/kg was 50% and the “Assay C Duration” value is more than 180 min.

Take `CCCCc1cn(C)c(=O)n1Cc1ccc(-c2ccccc2-c2nnn[nH]2)nc1` [Compound 205]: the IC50 in test [1] is 20 nM. In the test with rabbit aortic rings, this compound showed a Kb of 0.724 nM. Besides, in the test with pressor response to AII, the inhibition in vivo at 3 mg/kg was 40% and the “Assay C Duration” value was more than 180 min.

For the compound `CCCCc1cn(CC)c(=O)n1Cc1ccc(-c2ccccc2-c2nnn[nH]2)nc1` [Compound 206], in test [1], the IC50 came out at 5.4 nM. Further, the Kb in the test with rabbit aortic rings is 1.78 nM. Also, in the test on pressor response to AII, the inhibition in vivo at 3 mg/kg came to 30% and the “Assay C Duration” value is more than 180 min.

`CCCCc1cn(CCC(C)C)c(=O)n1Cc1ccc(-c2ccccc2-c2nnn[nH]2)nc1` [Compound 209]: in test [1], the IC50 stood at 5 nM. The Kb in the test on rabbit aortic rings was 0.389 nM. For the same compound, in the test with pressor response to AII, the inhibition in vivo at 3 mg/kg came out at 25% and the “Assay C Duration” value was more than 180 min.

Regarding `CCCCCn1cc(CCCC)n(Cc2ccc(-c3ccccc3-c3nnn[nH]3)nc2)c1=O` [Compound 210], the IC50 in test [1] was 3.6 nM. For the same compound, the antagonist equilibrium constant (Kb) in the test on rabbit aortic rings was 4.37 nM. In the test on pressor response to AII, at 3 mg/kg the inhibition in vivo was 15% and the “Assay C Duration” value was determined as 180 min.

On to `CCCCc1cn(C(C)C)c(=O)n1Cc1ccc(-c2ccccc2-c2nnn[nH]2)nc1` [Compound 211], for which the IC50 in test [1] turned out to be 18 nM. The Kb in the test on rabbit aortic rings is 1.82 nM. Besides, in the test on pressor response to AII, the inhibition in vivo at 3 mg/kg was determined as 35% and the “Assay C Duration” value was more than 180 min.

`CCCCc1cn(C2CCCCC2)c(=O)n1Cc1ccc(-c2ccccc2-c2nnn[nH]2)nc1` [Compound 216] displayed an IC50 in test [1] of 5.4 nM. This compound also gave a Kb in the test with rabbit aortic rings of 1.58 nM. In the test on pressor response to AII, 3 mg/kg produced 50% inhibition in vivo and the “Assay C Duration” value was more than 180 min.

`CCCCc1cn(-c2c(Cl)cccc2Cl)c(=O)n1Cc1ccc(-c2ccccc2-c2nnn[nH]2)nc1` [Compound 232] gave an IC50 in test [1] of 4.4 nM. This compound gave a Kb in the test on rabbit aortic rings of 2.57 nM. Moreover, in the test with pressor response to AII, 3 mg/kg produced 70% inhibition in vivo and the “Assay C Duration” value was more than 180 min.

The compound `CCCCc1cn(-c2ccccc2CC)c(=O)n1Cc1ccc(-c2ccccc2-c2nnn[nH]2)nc1` [Compound 239] returned an IC50 in test [1] of 6.8 nM. For the same compound, the Kb with rabbit aortic rings was 13.2 nM. In addition, in the test with pressor response to AII, at 3 mg/kg the inhibition in vivo was 20% and the “Assay C Duration” value is more than 180 min.

In test [1], `CCCCc1cn([C@H]2[C@H](C)CCC[C@@H]2C)c(=O)n1Cc1ccc(-c2ccccc2-c2nnn[nH]2)nc1` [Compound 247] gave an IC50 of 9.4 nM. In the test with rabbit aortic rings, this compound had a Kb of 5.5 nM. For the same compound, in the test with pressor response to AII, the inhibition in vivo at 3 mg/kg amounted to 20% and the “Assay C Duration” value turned out to be 180 min.

For `CCCCc1cn(C2CCCCC2(C)C)c(=O)n1Cc1ccc(-c2ccccc2-c2nnn[nH]2)nc1` (stereo not drawn) [Compound 248], the IC50 in test [1] is 20 nM. Moreover, the Kb in the test on rabbit aortic rings is 20.9 nM. Moreover, in the test with pressor response to AII, 3 mg/kg produced 10% inhibition in vivo.

In turn, `CCCCc1nc(CCCC)n(Cc2ccc(-c3cnccc3-c3nnn[nH]3)cc2)n1` [Compound 255] returned an IC50 in test [1] of 12 nM. This compound gave a Kb in the test on rabbit aortic rings of 24.5 nM. Also, in the test with pressor response to AII, the inhibition in vivo at 3 mg/kg came to 20% and the “Assay C Duration” value was more than 180 min.

`CCCCc1nc(-c2ccccc2C)n(Cc2ccc(-c3ccccc3-c3nnn[nH]3)nc2)n1` [Compound 273]: the IC50 in test [1] was 9.8 nM. Besides, the Kb in the test with rabbit aortic rings was 2.95 nM. In the test on pressor response to AII, the inhibition in vivo at 3 mg/kg stood at 25% and the “Assay C Duration” value is more than 180 min.

In turn, `CCCCc1nc(-c2ccccc2C(C)C)nn1Cc1ccc(-c2ccccc2-c2nnn[nH]2)nc1` [Compound 274] returned an IC50 in test [1] of 13 nM. The same compound had a Kb with rabbit aortic rings of 0.871 nM. For the same compound, in the test with pressor response to AII, testing at 3 mg/kg gave an inhibition in vivo of 35% and the “Assay C Duration” value is more than 180 min.

In turn, `CCCCc1nc(-c2ccccc2C(C)C)n(Cc2ccc(-c3ccccc3-c3nnn[nH]3)nc2)n1` [Compound 275] returned an IC50 in test [1] of 6.3 nM. The Kb with rabbit aortic rings is 0.851 nM. In the test on pressor response to AII, the inhibition in vivo at 3 mg/kg was found to be 40% and the “Assay C Duration” value was more than 180 min.

`CCCCc1nc(-c2ccccc2OC)nn1Cc1ccc(-c2ccccc2-c2nnn[nH]2)nc1` [Compound 276] yielded a 50% inhibitory concentration (IC50) in test [1] of 33 nM. For the same compound, in the test on rabbit aortic rings, the Kb is 1.95 nM. Further, the inhibition in vivo at 3 mg/kg in the test on pressor response to AII is less than 20%.

`CCCCc1nc(-c2ccccc2Cl)nn1Cc1ccc(-c2ccccc2-c2nnn[nH]2)nc1` [Compound 278]: in test [1], the IC50 came to 30 nM. In the test with rabbit aortic rings, this compound showed a Kb of 3.24 nM. Further, in the test with pressor response to AII, the inhibition in vivo at 3 mg/kg turned out to be 50% and the “Assay C Duration” value is more than 180 min.

As to `CC(=O)S[C@@H]1CC2=CC(=O)CC[C@]2(C)[C@H]2CC[C@@]3(C)[C@@H](CC[C@@]34CCC(=O)O4)[C@H]12` [spironolactone, 17-hydroxy-7α-mercapto-3-oxo-17α-pregn-4-ene-21-carboxylic acid γ-lactone acetate], in the test with myocardial fibrosis, the “prevention of myocardial fibrosis” value is “prevents myocardial fibrosis”.

A word on the IC50: it is the concentration needed to halve the response being measured. By Kb is commonly meant the affinity of an antagonist, worked out from how it opposes an agonist. Read a high Kb as a less potent antagonist. By inhibition in vivo is commonly meant the share of the control response that was lost under treatment. A higher inhibition in vivo goes with strong suppression.
